Earlier results in patent publication EP0424553A1, “Substituted phenoxy alkanols for treatment of contact hypersensitivity” (priority 1989, dated 1991).

Tests used:
[1] = tested on: rat mast cells; settings: mediated by IgE- anti-IgE reaction
[2] = tested on: anaphylactic histamine release; settings: compared with chlorphenesin

Row | Molecule | degranulation of the rat mast cells [1] | anaphylactic histamine release-preventive effect [2]
1 | O=C(O)c1cc(=O)c2c(OCC(O)COc3cccc4oc(C(=O)O)cc(=O)c34)cccc2o1 [cromolyn sodium] | inhibited | –
2 | chlorphenesin succinate | – | much superior to chlorphenesin
